Data as given in patent publication US20030130180A1, “Utilization of an aminopeptidase inhibitor” (priority 2000, published 2003).

Test system: Karpas cells
Experiment: Detection of surface protein combinations of the protein network on untreated (V1) and actinonin-treated (V2) Karpas cells
Assay type: cell-based
Conditions: actinonin-treated Karpas cells (V2)
Excerpt: Principally, detecting of the surface protein combinations may comprise procedural steps of an automated method for determining molecular classes, molecular groups or molecular parts in a solid or liquid object according to DE 197 09 348 C. In these steps, surface proteins may be examined and measured in one and the same object, i.e. in a sample of immune cells and/or tumor cells for example, by sequentially applying reagent solutions Yn (n=1,2,3, . . . N) by means of an automated apparatus, said procedural steps being: I. taking a first reagent solution Y1 from a vessel containing the reagent solution, II. applying said reagent solution Y1 to the object which is on an object slide, III. allowing the reagent solution to react for an automatically set period of time, IV. recording at least one individual labeling pattern of the object previously labeled with said first reagent solution Y1, V. repeating steps I-IV by applying said first reagent solution Y1 or a second reagent solution Y2 or a mixture of said first and second reagent solutions, and VI. repeating steps I to V with further reagent solutions Yn (n=2,3, . . . N) or a mixture thereof and whereby the labeling distribution patterns obtained in each cycle of the method are turned into a complex molecular combination pattern of the object to be examined by computer-aided image overlay. From this combination pattern, information may be gained on the presence of the above mentioned proteins, thus also allowing detection of the surface protein combinations, if the reagent solutions used contain labeled substances directed against the proteins in question. In numerous examinations, it was possible to identify the 30 cell surface proteins already listed above which belong to a specific protein network controlling the early polarization stages of tumor cells and immune cells. In a further examination, surface protein combinations of this protein network of Karpas cells were detected, both in untreated form and after treatment with the aminopeptidase inhibitor actinonin. For this purpose, two groups V1 and V2 of Karpas cells were formed, with the cells of group Vl remaining untreated, while the cells of group V2 were treated with actinonin. Table 2 lists those surface protein combinations which are present both in the actinonin-treated cells and in the untreated cells. However, this table and the further tables 3 and 4 only give examples of 18 of the 30 proteins, with the detected proteins being designated 1 and the non-detected proteins being designated 0. The proteins are continuously numbered 1 to 18, with the nomenclature being notable from table 1. [table] The cell numbers stated in tables 2 to 4 refer to each 1,000 cells examined in groups V1 and V2. Table 3 lists the surface protein combinations which only occur in the untreated Karpas cells and are never found in the actinonin-treated Karpas cells. The number of protein combinations listed in this table 3 amounts to 131. Finally, table 4 exclusively lists those surface protein combinations which occur exclusively in the actinonin-treated Karpas cells. It may be gathered from tables 2 to 4 that, if one examines merely 18 proteins of the 30 proteins, a total of 394 different surface protein combinations will occur, with a total of 334 different combinations occurring in the untreated cells and a total of 263 different combinations being detected in the treated cells.

Measured: V2 No. of cells In 1/1000

CCCCC[C@H](CC(=O)NO)C(=O)N[C@H](C(=O)N1CCC[C@H]1CO)C(C)C [actinonin]
0.0 1/1000: surface protein combination No. 19, binary code proteins 1-18: 011000011101011100, untreated V1: 0.4 | surface protein combination No. 20, binary code proteins 1-18: 011000011000000000, untreated V1: 0.4 | surface protein combination No. 21, binary code proteins 1-18: 010000001101001100, untreated V1: 0.4 | surface protein combination No. 22, binary code proteins 1-18: 010000001100011100, untreated V1: 0.4 | surface protein combination No. 23, binary code proteins 1-18: 001100011011001000, untreated V1: 0.4 | surface protein combination No. 24, binary code proteins 1-18: 001100011001001000, untreated V1: 0.4 | surface protein combination No. 25, binary code proteins 1-18: 001000010101101000, untreated V1: 0.4 | surface protein combination No. 26, binary code proteins 1-18: 001000010010001000, untreated V1: 0.4 | surface protein combination No. 27, binary code proteins 1-18: 000000000010001000, untreated V1: 0.4 | surface protein combination No. 28, binary code proteins 1-18: 111000011111011100, untreated V1: 0.2 | surface protein combination No. 29, binary code proteins 1-18: 110000011100011100, untreated V1: 0.2 | surface protein combination No. 30, binary code proteins 1-18: 101100000000001100, untreated V1: 0.2 | surface protein combination No. 31, binary code proteins 1-18: 101000111111011000, untreated V1: 0.2 | surface protein combination No. 32, binary code proteins 1-18: 011100011111011100, untreated V1: 0.2 | surface protein combination No. 33, binary code proteins 1-18: 011100011100001000, untreated V1: 0.2 | surface protein combination No. 34, binary code proteins 1-18: 011100001100001100, untreated V1: 0.2 | surface protein combination No. 35, binary code proteins 1-18: 001100000011001000, untreated V1: 0.2 | surface protein combination No. 36, binary code proteins 1-18: 001000011100000000, untreated V1: 0.2 | surface protein combination No. 37, binary code proteins 1-18: 001000010111011100, untreated V1: 0.2 | surface protein combination No. 38, binary code proteins 1-18: 001000010110001000, untreated V1: 0.2 | surface protein combination No. 39, binary code proteins 1-18: 001000001011000000, untreated V1: 0.2 | surface protein combination No. 40, binary code proteins 1-18: 000100010100001000, untreated V1: 0.2 | surface protein combination No. 41, binary code proteins 1-18: 000000011011001000, untreated V1: 0.2 | surface protein combination No. 42, binary code proteins 1-18: 000000010110001000, untreated V1: 0.2 | surface protein combination No. 43, binary code proteins 1-18: 000000010010001000, untreated V1: 0.2 | surface protein combination No. 44, binary code proteins 1-18: 000000000000001100, untreated V1: 0.2 | surface protein combination No. 45, binary code proteins 1-18: 111100101100011000, untreated V1: 0.1 | surface protein combination No. 46, binary code proteins 1-18: 111100011101001100, untreated V1: 0.1 | surface protein combination No. 47, binary code proteins 1-18: 111100011100111100, untreated V1: 0.1 | surface protein combination No. 48, binary code proteins 1-18: 111100011100011000, untreated V1: 0.1 | surface protein combination No. 49, binary code proteins 1-18: 111000011111011000, untreated V1: 0.1 | surface protein combination No. 50, binary code proteins 1-18: 111000011101011000, untreated V1: 0.1 | surface protein combination No. 51, binary code proteins 1-18: 111000001100011100, untreated V1: 0.1 | surface protein combination No. 52, binary code proteins 1-18: 110000001101011100, untreated V1: 0.1 | surface protein combination No. 53, binary code proteins 1-18: 110000001100000100, untreated V1: 0.1 | surface protein combination No. 54, binary code proteins 1-18: 101100011011011000, untreated V1: 0.1 | surface protein combination No. 55, binary code proteins 1-18: 101100010111001100, untreated V1: 0.1 | surface protein combination No. 56, binary code proteins 1-18: 101100010011001000, untreated V1: 0.1 | surface protein combination No. 57, binary code proteins 1-18: 101100000000001000, untreated V1: 0.1 | surface protein combination No. 58, binary code proteins 1-18: 101000110101011000, untreated V1: 0.1 | surface protein combination No. 59, binary code proteins 1-18: 101000011111011100, untreated V1: 0.1 | surface protein combination No. 60, binary code proteins 1-18: 101000011101011000, untreated V1: 0.1 | surface protein combination No. 61, binary code proteins 1-18: 101000010111111000, untreated V1: 0.1 | surface protein combination No. 62, binary code proteins 1-18: 101000010101011100, untreated V1: 0.1 | surface protein combination No. 63, binary code proteins 1-18: 100100110100011100, untreated V1: 0.1 | surface protein combination No. 93, binary code 001100010111111000 | surface protein combination No. 94, binary code 001100010111101100 | surface protein combination No. 95, binary code 001100010100011000 | surface protein combination No. 96, binary code 001100010011001100 | surface protein combination No. 97, binary code 001100010001001100 | surface protein combination No. 98, binary code 001100001101001000 | surface protein combination No. 99, binary code 001100000101000000 | surface protein combination No. 100, binary code 001000111111011000 | surface protein combination No. 101, binary code 001000111101011000 | surface protein combination No. 102, binary code 001000111011011000 | surface protein combination No. 103, binary code 001000011111011100 | surface protein combination No. 104, binary code 001000011101101000 | surface protein combination No. 105, binary code 001000011001011000 | surface protein combination No. 106, binary code 001000011001000100 | surface protein combination No. 107, binary code 001000010111101000 | surface protein combination No. 108, binary code 001000010101000100 | surface protein combination No. 109, binary code 001000010100011000 | surface protein combination No. 110, binary code 001000010011010000 | surface protein combination No. 111, binary code 001000010001011100 | surface protein combination No. 112, binary code 001000001111001000 | surface protein combination No. 113, binary code 001000001011001000 | surface protein combination No. 114, binary code 001000001001001000 | surface protein combination No. 115, binary code 001000001000000000 | surface protein combination No. 116, binary code 001000000110001000 | surface protein combination No. 117, binary code 000100011001000000
